± gives the standard deviation of the averaged measurements.
Legend:
Experiment in all cases: level (log10 ratio to DMSO vehicle control); higher = higher biomarker level / cell amount than vehicle control
Settings in all cases: in DMSO
Perfluorooctanamidine = compound: N=C(N)C(F)(F)C(F)(F)C(F)(F)C(F)(F)C(F)(F)C(F)(F)C(F)(F)F [Perfluorooctanamidine]
Method: (§1)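 BioMAP Diversity Plus panel of 12 human primary cell co-culture systems (3C, 4H, LPS, SAg, BT, BF4T, BE3C, CASM3C, HDF3CGF, KF3CT, MyoF, Mphg). Compounds were added 1 h before stimulation and left for 24 h (MyoF 48 h; BT 72 h for soluble read-outs or 6 d for IgG). Biomarkers were read by ELISA, cytotoxicity by SRB, PBMC viability and proliferation by Alamar Blue. Each well value was divided by the mean of 8 DMSO control wells on the same plate and log10 transformed; duplicate blinded samples were tested at 4 concentrations.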

Perfluorooctanamide = compound: NC(=O)C(F)(F)C(F)(F)C(F)(F)C(F)(F)C(F)(F)C(F)(F)C(F)(F)F [Perfluorooctanamide]
Method: as §1

[1] = compound: C=CC(=O)OCCC(F)(F)C(F)(F)C(F)(F)C(F)(F)F [2-(Perfluorobutyl)ethyl acrylate]
Method: as §1

[2] = compound: CC(C)(C)C(=O)CC(=O)C(F)(F)C(F)(F)C(F)(F)F [(Heptafluorobutanoyl)pivaloylmethane]
Method: as §1

[3] = compound: OCC(F)(F)C(F)(F)C(F)(F)C(F)(F)C(F)(F)C(F)F [1H,1H,7H-Dodecafluoro-1-heptanol]
Method: as §1

[4] = compound: O=C(O)C(F)(F)C(F)(F)C(F)(F)C(F)(F)C(F)(F)C(F)(F)C(F)(F)C(F)(F)Cl [9-Chloro-perfluorononanoic acid]
Method: as §1

[5] = compound: O=C(O)CCC(F)(F)C(F)(F)C(F)(F)C(F)(F)C(F)(F)F [2H,2H,3H,3H-Perfluorooctanoic acid]
Method: as §1

Row | Test System | level (log10) (Perfluorooctanamidine; 6700 nM) | level (log10) (Perfluorooctanamidine; 20000 nM) | level (log10) (Perfluorooctanamidine; 60000 nM) | level (log10) (Perfluorooctanamide; 6700 nM) | level (log10) (Perfluorooctanamide; 20000 nM) | level (log10) (Perfluorooctanamide; 60000 nM) | level (log10) ([1]; 6700 nM) | level (log10) ([1]; 20000 nM) | level (log10) ([1]; 60000 nM) | level (log10) ([2]; 6700 nM) | level (log10) ([2]; 20000 nM) | level (log10) ([2]; 60000 nM) | level (log10) ([3]; 6700 nM) | level (log10) ([3]; 20000 nM) | level (log10) ([3]; 60000 nM) | level (log10) ([4]; 6700 nM) | level (log10) ([4]; 20000 nM) | level (log10) ([5]; 6700 nM) | level (log10) ([5]; 20000 nM) | level (log10) ([5]; 60000 nM)
1 | lMphg:CCL3/MIP-1alpha | -0.029 ± 0.03 | 0.0015 ± 0.035 | 0.055 | -0.0155 ± 0.0064 | -0.021 ± 0.017 | -0.028 ± 0.024 | -0.0105 ± 0.0064 | -0.0115 ± 0.029 | 0.021 ± 0.013 | -0.011 ± 0.021 | -0.0185 ± 0.013 | -0.067 ± 0.11 | 0.0185 ± 0.063 | 0.0115 ± 0.019 | 0.044 ± 0.0085 | 0.0205 ± 0.029 | 0.0045 ± 0.046 | 0.032 ± 0.052 | 0.0625 ± 0.081 | 0.0765 ± 0.053
2 | lMphg:CD40 | -0.016 ± 0.023 | -0.0145 ± 0.005 | -0.046 | -0.0285 ± 0.018 | -0.007 ± 0.014 | 0.045 ± 0.0085 | -0.002 | -0.0165 ± 0.0064 | -0.0255 ± 0.0064 | -0.0075 ± 0.0021 | 0.004 ± 0.034 | -0.017 ± 0.0014 | -0.047 ± 0.082 | -0.0425 ± 0.047 | -0.061 ± 0.071 | -0.0165 ± 0.0064 | -0.0155 ± 0.005 | -0.0205 ± 0.039 | -0.0235 ± 0.04 | -0.05 ± 0.041
3 | lMphg:CD62E/E-Selectin | 0.0065 ± 0.042 | 0.0655 ± 0.015 | 0.049 | 0.022 ± 0.048 | 0.0285 ± 0.043 | -0.0165 ± 0.07 | 0.01 ± 0.0071 | -0.006 ± 0.0099 | 0.001 ± 0.0042 | -0.017 | -0.0085 ± 0.012 | -0.0525 ± 0.011 | -0.0295 ± 0.025 | -0.0265 ± 0.0035 | 0.001 ± 0.048 | 0.01 ± 0.0099 | 0.017 ± 0.0042 | 0.0015 ± 0.035 | 0.0165 ± 0.0064 | 0.0415 ± 0.00071
4 | lMphg:CD69 | -0.048 ± 0.0028 | -0.052 ± 0.0085 | 0.029 | 0.0175 ± 0.018 | -0.005 ± 0.025 | -0.0825 ± 0.074 | -0.0065 ± 0.016 | -0.006 ± 0.011 | -0.024 ± 0.0057 | -0.0145 ± 0.0021 | -0.0025 ± 0.0078 | 0.051 ± 0.011 | -0.0275 ± 0.0021 | -0.0305 ± 0.0064 | -0.018 ± 0.075 | -0.049 ± 0.024 | -0.053 ± 0.016 | -0.032 ± 0.05 | -0.0325 ± 0.063 | -0.016 ± 0.031
5 | lMphg:CD106/VCAM-1 | -0.006 ± 0.0028 | -0.008 ± 0.0057 | -0.08 | -0.021 ± 0.0071 | 0.006 ± 0.0071 | 0.0435 ± 0.012 | -0.009 ± 0.0099 | -0.0035 ± 0.028 | -0.0405 ± 0.037 | 0.0115 ± 0.037 | 0.001 ± 0.014 | -0.009 ± 0.0057 | -0.0115 ± 0.042 | -0.015 ± 0.037 | -0.027 ± 0.047 | -0.011 ± 0.0099 | -0.016 ± 0.0071 | -0.0135 ± 0.0092 | -0.022 ± 0.023 | -0.011 ± 0.021
6 | lMphg:CXCL8/IL-8 | 0.011 | 0.0425 ± 0.019 | 0.175 | 0.013 ± 0.028 | 0.0285 ± 0.012 | 0.031 ± 0.042 | 0.013 ± 0.014 | 0.0045 ± 0.0021 | 0.0055 ± 0.0078 | 0.002 ± 0.02 | 0.006 ± 0.034 | 0.014 ± 0.064 | -0.003 ± 0.013 | 0.017 ± 0.025 | 0.042 ± 0.028 | -0.0145 ± 0.0078 | 0.0115 ± 0.025 | -0.017 ± 0.023 | 0.066 ± 0.04 | 0.115 ± 0.018
7 | lMphg:IL-1alpha | -0.011 ± 0.024 | -0.004 ± 0.044 | 0.027 | 0.01 ± 0.034 | 0.0265 ± 0.054 | 0.04 ± 0.058 | -0.026 ± 0.028 | -0.033 ± 0.0028 | 0.0145 ± 0.04 | 0.0265 ± 0.042 | 0.0005 ± 0.0021 | 0.0175 ± 0.013 | -0.0255 ± 0.056 | -0.0275 ± 0.079 | -0.0735 ± 0.18 | 0.014 ± 0.027 | 0.0635 ± 0.046 | 0.03 ± 0.028 | 0.0675 ± 0.071 | 0.129 ± 0.067
8 | lMphg:M-CSF | -0.0155 ± 0.016 | -0.0015 ± 0.0021 | -0.001 | 0.0175 ± 0.011 | -0.0055 ± 0.042 | 0.0085 ± 0.059 | -0.0155 ± 0.029 | -0.011 ± 0.028 | -0.001 ± 0.018 | -0.0265 ± 0.039 | -0.027 ± 0.051 | -0.0315 ± 0.032 | -0.0115 ± 0.005 | -0.0035 ± 0.0078 | 0.0085 ± 0.044 | -0.0055 ± 0.0021 | -0.0045 ± 0.0021 | -0.0155 ± 0.0021 | 0.0035 ± 0.0064 | -0.046 ± 0.014
9 | lMphg:SRB | -0.006 ± 0.016 | 0.004 ± 0.016 | 0.001 | -0.0015 ± 0.016 | -0.0145 ± 0.0021 | -0.0075 ± 0.011 | 0.0085 ± 0.0078 | -0.0095 ± 0.0064 | -0.0155 ± 0.012 | -0.001 ± 0.0057 | -0.006 ± 0.0028 | 0.008 ± 0.016 | -0.018 ± 0.028 | 0.0015 ± 0.005 | -0.0025 ± 0.00071 | 0.0105 ± 0.0092 | 0.013 ± 0.0042 | -0.0025 ± 0.0035 | 0.001 ± 0.0014 | 0.007 ± 0.0085
10 | lMphg:SRB-Mphg | 0.0145 ± 0.011 | 0.009 ± 0.014 | 0.007 | -0.0145 ± 0.021 | -0.01 ± 0.0071 | -0.016 ± 0.0057 | 0.012 ± 0.011 | 0.0075 ± 0.016 | -0.006 ± 0.021 | -0.0025 ± 0.0078 | -0.0125 ± 0.012 | 0.0035 ± 0.019 | -0.028 ± 0.095 | -0.046 ± 0.0085 | 0.0615 ± 0.052 | 0.01 ± 0.0042 | 0.0055 ± 0.018 | 0.0115 ± 0.0035 | 0.0065 ± 0.015 | 0.007 ± 0.017
11 | lMphg:sIL-10 | -0.051 ± 0.018 | -0.118 ± 0.0057 | -0.121 | -0.029 ± 0.0028 | 0.013 ± 0.042 | 0.008 ± 0.058 | -0.0435 ± 0.011 | -0.07 ± 0.021 | -0.0715 ± 0.054 | 0.024 ± 0.0099 | -0.0365 ± 0.061 | 0.0125 ± 0.032 | 0.0085 ± 0.11 | -0.006 ± 0.031 | 0.0485 ± 0.0078 | 0.0205 ± 0.0078 | -0.015 ± 0.0085 | -0.073 ± 0.0085 | -0.043 | -0.216 ± 0.011

Source: the supplement of paper PMC10331698
